Paper PMC7774954, “Interactomic affinity profiling by holdup assay: Acetylation and distal residues impact the PDZome-binding specificity of PTEN phosphatase” (PLoS ONE, 2020)

Tested on: 266 human PDZ domains (PDZome)
Assay: Holdup assay (chromatographic retention, PDZome-binding profile, BI)
Parameters: key to maximal BI / Max BI / BI: binding intensity: 0.00 = no binding, 1.00 = maximal binding; Log(Kd): unit not given here
Description: The holdup method is a chromatographic approach in solution developed in our group that allows to measure the binding strength of a peptide, attached to a resin, against a library of domains of a same family. We initially proposed this method to explore the interaction between PBM peptides and the human PDZ domains. Briefly, a soluble cell lysate containing individually overexpressed PDZ domain is incubated until equilibrium with a calibrated amount of streptavidin-resin saturated either with the target biotinylated PBM peptide or with biotin as a reference. The flow-throughs containing the unbound protein fraction are recovered by filtration and loaded on a capillary electrophoresis instrument to quantify the amount of remaining free PDZ. The stronger the steady-state depletion of the PDZ domain in the flow-through as compared to the reference, the stronger the PDZ/PBM binding interaction. The assay is particularly suited to quantitatively evaluate and compare large numbers of interactions. This method delivers, for each PBM/PDZ pair, a "binding intensity" (BI), whose value can in principle range from 0.00 (no binding event detected) to 1.00 (maximal binding event). The approach has been automated and the human PDZ library was recently extended to the complete 266 PDZ domains known in human proteome. […] The high accuracy and efficiency of the holdup assay have been validated previously. Very recently, a manual version of the holdup assay with purified samples and using widespread benchtop equipment has been implemented and has proven to be reliable.
The 266 PDZ domains that constitute the PDZ library (“PDZome V.2”) used in the present work were produced using constructs with optimized boundaries as described previously. All the genes were fused to Maltose-Binding Protein (MBP) or Thioredoxin (THR) tag often used to facilitate the solubilisation of the over-expressed protein, by cloning them into the pETG41A or pETG20A plasmid, respectively. […] The expressed tag-PDZ concentrations were quantified using capillary gel electrophoresis and cell lysates were diluted to reach approximately 5 μM tag-PDZ before freezing in 96-well plates. A detailed protocol of the PDZ library production, expression and benchmarking can be found in [32]. PDZ domains are named according to their originating protein name followed by the PDZ number (e.g. NHERF1-1 as the first PDZ domain of the NHERF1 protein).
The holdup assay was performed on a Tecan freedom Evo200 robot with 384-well plates in singlicate for the three 11-mer PTEN variants and the 13-mer PTEN peptide as described in [31, 32]. Briefly, prior to interaction assay, 2.5 μL of streptavidin resin was saturated in each well with 20 μL of biotinylated PBM peptides (42 μM) and then washed twice with an excess of free biotin, while the reference resin was incubated only with biotin. Right before the holdup experiment, the PDZ library was spiked with an internal standard of lysozyme. Then, the biotin- or PBM-saturated resin was incubated, each in a distinct well of a 384-well plate, with complete cell lysates diluted so that the concentration of the tag-PDZ present in the crude extract is adjusted at 4 μM. After a sufficient time to reach complex equilibrium (15 min.), a fast and mild filtration step is performed and the tag-PDZ concentrations were measured by capillary electrophoresis instrument (LabChip GXII, PerkinElmer, Massachusets, USA). Standard markers were used to convert migration time into molecular weight on the LabChip software and inappropriate molecular weight markers were corrected or excluded.
Holdup data quality check and processing […]

[1] = PDZ domain PARD3-1, first of two lines so named (r186)

`CC[C@H](C)[C@H](NC(=O)[C@H](CCC(N)=O)NC(=O)[C@@H](NC(=O)[C@H](Cc1c[nH]cn1)NC(=O)[C@H](CCC(N)=O)NC(=O)[C@H](CC(=O)O)NC(=O)[C@H](CCC(=O)O)NC(=O)[C@H](CC(=O)O)NC(=O)CCC(=O)NCCCOCCOCCOCCCNC(=O)CCCC[C@@H]1SC[C@@H]2NC(=O)N[C@@H]21)[C@@H](C)O)C(=O)N[C@H](C(=O)N[C@@H](CCCCN)C(=O)N[C@H](C(=O)O)C(C)C)[C@@H](C)O` [PTEN_11] showed a BI (PDZ domain MPDZ-2) of -0.043, a BI (PDZ domain MPDZ-3) of 0.079 and a BI (PDZ domain MPDZ-4) of -0.037. For the same compound, the BI (PDZ domain MPDZ-5) was 0.085, the BI (PDZ domain MPDZ-6) was -0.029 and the BI (PDZ domain MPDZ-7) was 0.154. For the same compound, the BI (PDZ domain MPDZ-8) was 0.119, the BI (PDZ domain MPDZ-9 (gene NHERF2, 2)) was -0.075 and the BI (PDZ domain MPP1-1) was -0.033. The BI (PDZ domain MPP2-1) was -0.076, the BI (PDZ domain MPP3-1) was 0.035 and the BI (PDZ domain MPP4-1) was 0.041. For the same compound, the BI (PDZ domain MPP5-1) was -0.091, the BI (PDZ domain MPP6-1) was -0.062 and the BI (PDZ domain MPP7-1) was 0.034. The BI (PDZ domain NHERF1-2) was 0.094, the BI (PDZ domain NHERF3-1) was 0.153 and the BI (PDZ domain NHERF3-2) was 0.063. It also gave a BI (PDZ domain NHERF3-3) of 0.131, a BI (PDZ domain NHERF3-4) of -0.013 and a BI (PDZ domain NHERF4-1) of -0.04. The BI (PDZ domain NHERF4-2) was -0.071, the BI (PDZ domain NHERF4-3) was 0.06 and the BI (PDZ domain NHERF4-4) was -0.01. For the same compound, the BI (PDZ domain NOS1-1) was 0.016, the BI [1] was 0.172 and the “Log(Kd)” value [1] was 3.7949. For the same compound, the BI (PDZ domain PARD3-1, second of two lines so named (r187)) was 0.048, the BI (PDZ domain PARD3B-1) was -0.032 and the BI (PDZ domain PARD3B-2) was 0.045. For the same compound, the BI (PDZ domain PARD3B-3) was -0.026, the BI (PDZ domain PARD6G-1) was -0.088 and the BI (PDZ domain PDLIM2-1) was -0.001. The BI (PDZ domain PDLIM3-1) was -0.059, the BI (PDZ domain PDLIM4-1) was -0.02 and the BI (PDZ domain PDLIM5-1) was 0.07. For the same compound, the BI (PDZ domain PDLIM7-1) was 0.032, the BI (PDZ domain PDZD2-1) was -0.006 and the BI (PDZ domain PDZD2-3) was -0.072. For the same compound, the BI (PDZ domain PDZD2-4) was -0.02, the BI (PDZ domain PDZD2-5) was 0.028 and the BI (PDZ domain PDZD2-6) was 0.115. For the same compound, the BI (PDZ domain PDZD4-1) was 0.019, the BI (PDZ domain PDZD7-1) was -0.032 and the BI (PDZ domain PDZD7-2) was 0.087. The BI (PDZ domain PDZD7-3) was 0.658, the BI (PDZ domain PDZD8-1) was -0.04 and the BI (PDZ domain PDZD11-1) was -0.013. For the same compound, the BI (PDZ domain PDZRN4-1) was 0, the BI (PDZ domain PDZRN4-2) was 0.005 and the BI (PDZ domain PREX1-1) was 0.099. For the same compound, the BI (PDZ domain PREX2-2) was -0.021, the BI (PDZ domain PRX-1) was -0.1 and the BI (PDZ domain PSCDBP-1) was -0.154. The BI (PDZ domain PSMD9-1) was -0.01, the BI (PDZ domain PTPN3-1) was 0.075 and the BI (PDZ domain PTPN4-1) was 0.017. The BI (PDZ domain PTPN13-1) was 0.143, the BI (PDZ domain PTPN13-5) was -0.041 and the BI (PDZ domain RAPGEF2-1) was -0.045. It also gave a BI (PDZ domain RHPN2-1) of -0.079, a BI (PDZ domain SCRIB-1) of 0.062 and a BI (PDZ domain SCRIB-2) of -0.183. It also gave a BI (PDZ domain SCRIB-4) of 0.061, a BI (PDZ domain SHANK1-1) of 0.251 and a BI (PDZ domain SHANK2-1) of 0.071. The BI (PDZ domain SHANK3-1) was 0.106, the BI (PDZ domain SHROOM2-1) was 0.022 and the BI (PDZ domain SHROOM4-1) was -0.001. For the same compound, the BI (PDZ domain SIPA1L2-1) was 0.019, the BI (PDZ domain SNTA1-1) was 0.18 and the BI (PDZ domain SNTB1-1) was 0.156. For the same compound, the BI (PDZ domain SNTG1-1) was 0.078, the BI (PDZ domain SNTG2-1) was 0.056 and the BI (PDZ domain STXB4-1) was -0.026. For the same compound, the BI (PDZ domain SYNJ2BP-1) was 0.089, the BI (PDZ domain SYNP2-1) was -0.045 and the BI (PDZ domain SYNPO2L-1) was -0.053. It also gave a BI (PDZ domain TIAM1-1) of 0.032, a BI (PDZ domain TIAM2-1) of 0.033 and a BI (PDZ domain TJP1-1) of 0.119. It also gave a BI (PDZ domain TJP1-2) of -0.039, a BI (PDZ domain TJP2-3) of 0.064 and a BI (PDZ domain TJP3-1) of 0.015. It also gave a BI (PDZ domain TJP3-2) of 0.017, a BI (PDZ domain TX1B3-1) of -0.022 and a BI (PDZ domain USH1C-1) of -0.104. For the same compound, the “number of PDZ domains identified as potential binders (BI>0.20)” value (holdup, singlicate, threshold BI>0.20) was 19 PDZ domains, the “maximal BI” value (holdup, singlicate, highest BI in the PDZome profile, BI standard error ~0.07) was 0.71 and the “binding of several PDZ domains (in words)” value (including several ones from MAGI and NHERF) was “detectably bound”. The “Max BI” value (maximum over PDZome) was 0.71.
